Reference: patent publication US10662203B2, “Pyrido[2,3-b]indole compounds for the treatment and prophylaxis of bacterial infection” (Hoffmann-La Roche Inc., priority 2017, dated 2020)

Assays:
Assay in all cases: 50% growth inhibitory concentration (IC50) determination assay
Assay type in all cases: cell-based
Conditions in all cases: Iso-Sensitest broth, 0.098 = detection limit
[1] = test system: A. baumannii (ATCC17978)
Method: (§1) Stock compounds in DMSO were serially two-fold diluted (range from 50 to 0.097 μM final concentration) in 384 wells microtiter plates and inoculated with 49 μL the bacterial suspension in Iso-Sensitest broth medium to have a final cell concentration of ˜5×10^5 CFU/mL in a final volume/well of 50 μL/well. Microtiter plates were incubated at 35±2° C. Bacterial cell growth was determined with the measurement of optical density at λ=600 nm each 20 minutes over a time course of 16 h. […] GP-6 (Example 4.131 disclosed in WO 2012/125746 A1) was used as the reference compound in Table 6-8. […] The data of IC50 over S. aureus (ATCC29213), K. pneumoniae (ATCC10031), and A. baumannii (ATCC17978) are illustrated in Table 6.

[2] = test system: K. pneumoniae (ATCC10031)
Method: as §1

[3] = test system: S. aureus (ATCC29213)
Method: as §1

[4] = Acinetobacter baumannii, ATCC17978, A. baumannii ATCC17978

## CNc1cc(F)c(F)c2c1[nH]c1ncc(-c3cnc4c(c3)c(=O)c(C(=O)O)cn4C)c(N3CCC(CNC4CC4)C3)c12 (stereo not drawn) [Example 1.137]
[1]; [4]
  IC50: 0.151 µM
[2]; Klebsiella pneumoniae
  IC50: < 0.098 µM
[3]; Staphylococcus aureus
  IC50: < 0.098 µM

## CNc1cc(F)c(F)c2c1[nH]c1ncc(-c3cnc4c(c3)c(=O)c(C(=O)O)cn4C)c(N3CCC(CN(C)CCOC)C3)c12 (stereo not drawn) [Example 1.142]
[1]; [4]
  IC50: 0.195 µM
[2]; Klebsiella pneumoniae
  IC50: < 0.098 µM
[3]; Staphylococcus aureus
  IC50: < 0.098 µM

## CNc1cc(F)c(F)c2c1[nH]c1ncc(-c3cnc4c(c3)c(=O)c(C(=O)O)cn4C)c(N3CC(CN(C)C)C(F)(F)C3)c12 (stereo not drawn) [Example 1.143]
[1]; [4]
  IC50: 0.109 µM
[2]; Klebsiella pneumoniae
  IC50: < 0.098 µM
[3]; Staphylococcus aureus
  IC50: < 0.098 µM

## CNc1cc(F)c(F)c2c1[nH]c1ncc(-c3cnc4c(c3)c(=O)c(C(=O)O)cn4C(C)CCO)c(N(C)C)c12 (stereo not drawn) [Example 1.145]
[1]; [4]
  IC50: 0.341 µM
[2]; Klebsiella pneumoniae
  IC50: 0.202 µM
[3]; Staphylococcus aureus
  IC50: < 0.098 µM

## CNc1cc(F)c(F)c2c1[nH]c1ncc(-c3cnc4c(c3)c(=O)c(C(=O)O)cn4CC3(O)CC3)c(N(C)C)c12 [Example 1.146]
[1]; [4]
  IC50: 0.525 µM
[2]; Klebsiella pneumoniae
  IC50: 0.411 µM
[3]; Staphylococcus aureus
  IC50: < 0.098 µM

## CNc1cc(F)c(F)c2c1[nH]c1ncc(-c3cnc4c(c3)c(=O)c(C(=O)O)cn4[C@@H]3CCNC3)c(N(C)C)c12 [Example 1.155]
[1]; [4]
  IC50: 0.328 µM
[2]; Klebsiella pneumoniae
  IC50: < 0.098 µM
[3]; Staphylococcus aureus
  IC50: 3.8 µM

## CNc1cc(F)c(F)c2c1[nH]c1ncc(-c3cnc4c(c3)c(=O)c(C(=O)O)cn4[C@@H]3CCNC3)c(N3CCCC3)c12 [Example 1.156]
[1]; [4]
  IC50: 0.478 µM
[2]; Klebsiella pneumoniae
  IC50: < 0.098 µM
[3]; Staphylococcus aureus
  IC50: < 0.098 µM

## CNc1cc(F)c(F)c2c1[nH]c1ncc(-c3cnc4c(c3)c(=O)c(C(=O)O)cn4C)c(N3C[C@H](C)[C@@H](N(C)C)C3)c12 [Example 1.167]
[1]; A. baumannii ATCC17978
  IC50: 0.143 µM
[2]
  IC50: < 0.098 µM
[3]
  IC50: < 0.098 µM

## CNc1cc(F)c(F)c2c1[nH]c1ncc(-c3cnc4c(c3)c(=O)c(C(=O)O)cn4C)c(N3C[C@H](F)[C@@H](N(C)C)C3)c12 [Example 1.168]
[1]; A. baumannii ATCC17978
  IC50: 0.287 µM
[2]; Klebsiella pneumoniae
  IC50: < 0.098 µM
[3]; Staphylococcus aureus
  IC50: < 0.098 µM

## CNc1cc(F)cc2c1[nH]c1ncc(-c3cnc4c(c3)c(=O)c(C(=O)O)cn4C)c(N3C[C@H](F)[C@@H](N(C)C)C3)c12 [Example 1.169]
[1]; [4]
  IC50: 0.229 µM
[2]; Klebsiella pneumoniae
  IC50: < 0.098 µM
[3]; Staphylococcus aureus
  IC50: < 0.098 µM

## CNc1cc(F)c(F)c2c1[nH]c1ncc(-c3cnc4c(c3)c(=O)c(C(=O)O)cn4C)c(N3CC[C@@H](CN4CCOCC4)C3)c12 [Example 1.174]
[1]; [4]
  IC50: 0.784 µM
[2]; Klebsiella pneumoniae
  IC50: 0.224 µM
[3]; Staphylococcus aureus
  IC50: < 0.098 µM

## CNc1cc(F)c(F)c2c1[nH]c1ncc(-c3cnc4c(c3)c(=O)c(C(=O)O)cn4CC(C)(C)N(C)C)c(N(C)C)c12 [Example 1.178]
[1]; [4]
  IC50: 0.235 µM
[2]; Klebsiella pneumoniae
  IC50: < 0.098 µM
[3]; Staphylococcus aureus
  IC50: < 0.098 µM

## CNc1cc(F)c(F)c2c1[nH]c1ncc(-c3cnc4c(c3)c(=O)c(C(=O)O)cn4N(C)C)c(N3CCOCC3)c12 [Example 1.180]
[1]; [4]
  IC50: 0.353 µM
[2]; Klebsiella pneumoniae
  IC50: 0.112 µM
[3]; Staphylococcus aureus
  IC50: < 0.098 µM

## CNc1cc(F)cc2c1[nH]c1ncc(-c3cnc4c(c3)c(=O)c(C(=O)O)cn4C)c(N3CCCN(C)CC3)c12 [Example 1.185]
[1]; [4]
  IC50: 0.524 µM
[2]; Klebsiella pneumoniae
  IC50: < 0.098 µM
[3]; Staphylococcus aureus
  IC50: 0.321 µM

## CNc1cc(F)c(F)c2c1[nH]c1ncc(-c3cnc4c(c3)c(=O)c(C(=O)O)cn4NC)c(N3CC[C@H]4CCN(C)C4C3)c12 (stereo partly drawn) [Example 1.199]
[1]; [4]
  IC50: 0.151 µM
[2]; Klebsiella pneumoniae
  IC50: < 0.098 µM
[3]; Staphylococcus aureus
  IC50: < 0.098 µM

## CNc1cc(F)c(F)c2c1[nH]c1ncc(-c3cnc4c(c3)c(=O)c(C(=O)O)cn4C)c(N3CCN(C4CC4)CC3)c12 [Example 1.204]
[1]; [4]
  IC50: 0.201 µM
[2]; Klebsiella pneumoniae
  IC50: < 0.098 µM
[3]; Staphylococcus aureus
  IC50: < 0.098 µM

## CNc1cc(F)c(F)c2c1[nH]c1ncc(-c3cnc4c(c3)c(=O)c(C(=O)O)cn4C)c(N3CCCC3)c12 [Example 1.208]
[1]; [4]
  IC50: 0.78 µM
[2]; Klebsiella pneumoniae
  IC50: 0.16 µM
[3]; Staphylococcus aureus
  IC50: < 0.098 µM

## CNc1cc(F)cc2c1[nH]c1ncc(-c3cnc4c(c3)c(=O)c(C(=O)O)cn4NC)c(N3CC4[C@H](CCN4C)C3)c12 (stereo partly drawn) [Example 1.210]
[1]; [4]
  IC50: < 0.098 µM
[2]; Klebsiella pneumoniae
  IC50: < 0.098 µM
[3]; Staphylococcus aureus
  IC50: < 0.098 µM

## CNc1cc(F)c(F)c2c1[nH]c1ncc(-c3cnc4c(c3)c(=O)c(C(=O)O)cn4C)c(N3CC4[C@H](CC[C@H]4CN(C)C)C3)c12 (stereo partly drawn) [Example 1.218]
[1]; [4]
  IC50: 0.497 µM
[2]; Klebsiella pneumoniae
  IC50: < 0.098 µM
[3]; Staphylococcus aureus
  IC50: < 0.098 µM

## CNc1cc(F)c(F)c2c1[nH]c1ncc(-c3cnc4c(c3)c(=O)c(C(=O)O)cn4C)c(N3CCN(C)CC3)c12 [Example 1.226]
[1]; [4]
  IC50: 0.207 µM
[2]; Klebsiella pneumoniae
  IC50: < 0.098 µM
[3]; Staphylococcus aureus
  IC50: 0.11 µM

## CCN1CCN(c2c(-c3cnc4c(c3)c(=O)c(C(=O)O)cn4C)cnc3[nH]c4c(NC)cc(F)c(F)c4c23)CC1 [Example 1.233]
[1]; [4]
  IC50: 0.3 µM
[2]; Klebsiella pneumoniae
  IC50: < 0.098 µM
[3]; Staphylococcus aureus
  IC50: 0.169 µM

## CNc1cc(F)c(F)c2c1[nH]c1ncc(-c3cnc4c(c3)c(=O)c(C(=O)O)cn4C)c(N3CCN(C(C)C)CC3)c12 [Example 1.234]
[1]; [4]
  IC50: 0.821 µM
[2]; Klebsiella pneumoniae
  IC50: < 0.098 µM
[3]; Staphylococcus aureus
  IC50: 0.283 µM
